Source: patent US20110262490A1, “POLYMER-AGENT CONJUGATES, PARTICLES, COMPOSITIONS, AND RELATED METHODS OF USE” (priority 2009, published 2011)
Where “and” joins values, the source holds several entries; their conditions need not be identical. Equal values may be shown once. Read-outs that look alike come from different tables or passages of the source.

How the values were obtained:
[1] = system: HCT-116 tumor; experiment: In vivo efficacy in HCT-116 colon xenograft model (Example 44); parameters: species or system mouse; settings: 30 mg/kg IV weekly×2
Method: HCT-116 cells were grown in culture to confluency in McCoy's 5a medium containing 10% FBS and 1% penicillin/streptomycin and then resuspended in McCoy's 5a (passage 4). This suspension of HCT-116 cells (density=3.7×10^6 cells/mL) was implanted subcutaneously above the right hind leg of male CD-1 nude mice on day 1.

[2] = system: SK-OV-3 tumor; experiment: In vivo efficacy in SK-OV-3 ovarian human xenograft model (Example 45); parameters: species or system mouse
Method: SK-OV-3 cells were grown in culture to confluency in RPMI medium containing 10% FBS and 1% penicillin/streptomycin and then resuspended in RPMI (passage 4) for implantation into mice. This suspension of SK-OV-3 cells (density=30×10^6 cells/mL) was implanted into the mammary gland of female CD-1 nude mice on Day 1. […]

[3] = system: MDA-MB-435 tumor; experiment: In vivo efficacy in MDA-MB-435 melanoma human xenograft model (Example 46); parameters: species or system mouse
Method: MDA-MB-435 cells were grown in culture to confluency in RPMI medium containing 10% FBS and 1% penicillin/streptomycin and then resuspended in RPMI (passage 4) for implantation into mice. A volume of 0.1 mL containing 4.0×10^6 cells MDA-MB-435 cells were implanted into the mammary gland of female CD-1 nude mice on Day 1.

[4] = system: murine melanoma tumor; experiment: Efficacy and survival in aggressive murine melanoma model at MTD (Example 92); assay type: in vivo, mouse; settings: every other week dosing at MTD
Method: Thus, the sustained release properties of a particle according to exemplary particle 1 supports less frequent dosing of patients. Methods: Tumor-bearing mice were injected with a particle according to exemplary particle 1 or docetaxel at their respective MTD. See, for example, FIGS. 6a and 6b.

[5] = system: MDA-MB-435 tumor; experiment: MDA-MB-435 breast xenograft model, delayed treatment (Example 93); assay type: in vivo, mouse
Description: See, for example, FIG. 7.

[6] = system: ADR-RES tumor;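 note: tumor volume and body weight recorded thrice weekly while dosing and twice weekly afterwards, with animals checked for morbidity and adverse effects on the same schedule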
Method: ADR-RES cells were grown in culture to 85-90% confluency in RPMI medium supplemented with 10% fetal bovine serum (FBS), 1% glutamine and 1% penicillin/streptomycin.
The treatments were administered IV into the tail vein at a dose volume of 10 and 20 mL/kg for 30 and 60 mg/kg respectively, beginning on post-implantation day 47, when the mean tumor volume was ca. 150 mm^3. Body weight and tumor volume were measured for three times a week during the dosing period and twice a week thereafter. In addition, animals were also monitored for any morbidity and adverse effects for three times a week during the dosing period and twice a week thereafter.
Tumor volume was calculated with (width×width×length)/2 mm^3 formula. Efficacy was determined by tumor growth inhibition (TGI), tumor growth delay (TGD) and survival. Tumor growth inhibition (TGI) is represented as % and calculated as (1−(treated tumor volume/control tumor volume))×100 when the control group mean tumor volume reached ≧1000 mm^3. Tumor growth delay (TGD) is calculated by subtracting the day when the vehicle treated group reached the maximum tumor size 1000 mm^3 from the day when the treatment group tumor size reached 1000 mm^3.

[7] = system: B16.F10 tumor; experiment: Efficacy and tolerability in mouse melanoma model B16.F10 (Example 58)
Method: B16.F10 cells were grown in culture to 85-90% confluency in MEM-alpha medium supplemented with 10% fetal bovine serum (FBS) and 1% penicillin/streptomycin. Cells were removed from the culture flask using 0.05% trypsin (passage=4), re-suspended in PBS (density=10×10^6 cells/mL) and were implanted subcutaneously (1×10^6 cells in 100 μL MEM-alpha medium/mouse) into the right flank of male C57BL/6 mice on day 1.
Body weight and tumor volume were measured three times a week. In addition, animals were also monitored for any morbidity and adverse effects three times a week.
Tumor volume was calculated with (width×width×length)/2 mm^3 formula. Efficacy was determined by tumor growth inhibition (TGI), tumor growth delay (TGD) and survival. Tumor growth inhibition (TGI) is represented as % and calculated as (1−(treated tumor volume/control tumor volume))×100 when the control group mean tumor volume reached ≧3000 mm^3. Tumor growth delay (TGD) is calculated by subtracting the day when the vehicle treated group reached the maximum tumor size 3000 mm^3 from the day when the treatment group tumor size reached 3000 mm^3. The criterion at which a mouse was removed from the study was tumor volume ≧3000 mm^3.

[8] = system: B16.F10 tumor; experiment: Efficacy and tolerability in mouse melanoma model B16.F10 (Example 61)
Method: Briefly, ATP and oxygen in viable cells reduce luciferin to oxyluciferin in the presence of luciferase to produce energy in the form of light. B16.F10 cells were grown in culture to 85-90% confluency in MEM-alpha medium supplemented with fetal bovine serum (FBS) and 1% penicillin/streptomycin. Cells were removed from the flask using 0.05% trypsin (passage=4), re-suspended in PBS (density=10×10^6 cells/mL) and were implanted subcutaneously (1×10^6 cells in 100 μL PBS/mouse) into the right flank of male C57BL/6 mice on day 1.
The treatments were administered IV into the tail vein at a dose volume of 10 ml/kg, beginning on post-implantation day 5, when the mean tumor volume was ca. 60 mm^3 Animals were monitored for any morbidity and adverse effects three times a week. In addition, body weight and tumor volume were also measured three times a week.
Tumor volume was calculated with (width×width×length)/2 mm^3 formula. Efficacy was determined by tumor growth inhibition (TGI), tumor growth delay (TGD) and survival. Tumor growth inhibition (TGI) is represented as % and calculated as (1−(treated tumor volume/control tumor volume))×100 when the control group mean tumor volume reached ≧3000 mm^3 Tumor growth delay (TGD) is calculated by subtracting the day when the vehicle treated group reached the maximum tumor size 3000 mm^3 from the day when the treatment group tumor size reached 3000 mm^3. The criterion at which a mouse was removed from the study was tumor volume ≧3000 mm^3.

[9] = system: H1299 tumor; experiment: Efficacy and tolerability in non-small cell lung carcinoma model H1299 (Example 60); settings: for Tumor growth inhibition (% TGI): 30 mg/kg IV 1/wk×2, 30 mg/kg
Method: H1299 cells were grown in culture to 85-90% confluency in RPMI medium supplemented with 10% fetal bovine serum (FBS), 1% glutamine and 1% penicillin/streptomycin. Cells were removed from the culture flask using 0.05% trypsin (passage=4), re-suspended in RPMI medium (density=50×10^6 cells/mL) and were implanted subcutaneously (5×10^6 cells in 100 μL RPMI medium/mouse) into the mammary fat pad area of male nu/nu mice on day 1.
The treatments were administered IV into the tail vein at a dose volume of 10 and 20 mL/kg for 30 and 60 mg/kg respectively, beginning on post-implantation day 30 when the mean tumor volume was ca. 170 mm^3 (small tumor group), and on day 37 when the mean tumor volume was ca. 440 mm^3 (large tumor group). Body weight and tumor volume were measured for three times a week during the dosing period and twice a week thereafter. In addition, animals were also monitored for any morbidity and adverse effects for three times a week during the dosing period and twice a week thereafter.
Tumor volume was calculated with (width×width×length)/2 mm^3 formula. Efficacy was determined by tumor growth inhibition (TGI), tumor growth delay (TGD) and survival. Tumor growth inhibition (TGI) is represented as % and calculated as (1−(treated tumor volume/control tumor volume))×100 when the control group mean tumor volume reached ≧1000 mm^3 Tumor growth delay (TGD) is calculated by subtracting the day when the vehicle treated group reached the maximum tumor size 1000 mm^3 from the day when the treatment group tumor size reached 1000 mm^3.

[10] = 30 mg/kg IV 1/biwk×3, listed as free docetaxel
[11] = 30 mg/kg IV 1/wk×3, listed as free docetaxel
[12] = large tumor group, 30 mg/kg 1/wk×2
[13] = large tumor group, 60 mg/kg 1/wk×2
[14] = small tumor group, 30 mg/kg 1/wk×2
[15] = small tumor group, 60 mg/kg 1/wk×2

SMILES: CC(=O)O[C@@]12CO[C@@H]1C[C@H](O)[C@@]1(C)C(=O)[C@H](O)C3=C(C)[C@@H](OC(=O)[C@H](O)[C@@H](NC(=O)OC(C)(C)C)c4ccccc4)C[C@@](O)([C@@H](OC(=O)c4ccccc4)[C@H]21)C3(C)C [Free docetaxel, docetaxel]
- Maximum body weight loss [1]: 14%
- Tumor growth inhibition (TGI) [1]: 88%
- TGD ([1]; end point 1000 mm^3): 22 days
- Tumor growth delay (TGD) ([2]; 15 mg/kg IV weekly×2): 18 days
- Ataxia ([2]; 30 mg/kg IV weekly×2): did not cause ataxia
- Maximum body weight loss ([2]; 30 mg/kg IV weekly×2): 13%
- Tumor growth delay (TGD) ([2]; 30 mg/kg IV weekly×2): 42 days
- Body weight loss ([2]; 60 mg/kg IV weekly×2): greater than 20%
- Maximum body weight loss ([3]; 15 mg/kg IV Days 21 and 28): 10%
- Maximum body weight loss ([3]; 30 mg/kg IV Days 21 and 28): 14%
- Ataxia ([3]; 30 mg/kg IV weekly×2): did not cause ataxia
- Body weight loss ([3]; 60 mg/kg IV Days 21 and 28 (mean tumor 150 mm^3)): greater than 20%
- Ataxia ([3]; 60 mg/kg IV weekly×2, listed as docetaxel): developed ataxia
- Ataxia ([3]; 60 mg/kg IV weekly×2, listed as free docetaxel): Ataxia was observed four days after the second treatment
- Tumor growth suppression [4]: not sufficient to suppress tumor growth
- Effect on tumors allowed to grow to 500 mm^3 [5]: unable to suppress tumor growth over this time period
- Day mean tumor volume endpoint (≧1000 mm^3) reached ([6]; 30 mg/kg IV 1/biwk×3): 99 days
- Day of 50% survival ([6]; 30 mg/kg IV 1/biwk×3): 102 days
- Hind limb paralysis ([6]; 30 mg/kg IV 1/biwk×3): did not cause any significant body weight loss (<10%) or hind limb paralysis
- Increase in TGD ([6]; 30 mg/kg IV 1/biwk×3): 0%
- Maximum body weight loss ([6]; 30 mg/kg IV 1/biwk×3): 9%
- Tumor growth delay (TGD) ([6]; 30 mg/kg IV 1/biwk×3): 0 days
- Tumor growth inhibition (% TGI) ([6]; 30 mg/kg IV 1/biwk×3): 0%
- Tumor growth delay (TGD) [6, 10]: no TGD
- Tumor growth inhibition (% TGI) [6, 10]: 0%
- Day mean tumor volume endpoint (≧1000 mm^3) reached ([6]; 30 mg/kg IV 1/wk×2): 109 days
- Day of 50% survival ([6]; 30 mg/kg IV 1/wk×2): 106 days
- Hind limb paralysis ([6]; 30 mg/kg IV 1/wk×2): did not cause any significant body weight loss (<10%) or hind limb paralysis
- Increase in TGD ([6]; 30 mg/kg IV 1/wk×2): 13%
- Maximum body weight loss ([6]; 30 mg/kg IV 1/wk×2): 6%
- Tumor growth delay (TGD) ([6]; 30 mg/kg IV 1/wk×2): 7 days
- Tumor growth inhibition (% TGI) ([6]; 30 mg/kg IV 1/wk×2): 23%
- Tumor growth inhibition (% TGI) ([6]; 30 mg/kg IV 1/wk×2, listed as free docetaxel): 23%
- Hind limb paralysis ([6]; 60 mg/kg IV 1/biwk×3): severe hind limb paralysis
- Maximum body weight loss ([6]; 60 mg/kg IV 1/biwk×3): 21%
- Day mean tumor volume endpoint (≧1000 mm^3) reached ([6]; 60 mg/kg IV 1/wk×2): 106 days
- Day of 50% survival ([6]; 60 mg/kg IV 1/wk×2): 106 days
- Hind limb paralysis ([6]; 60 mg/kg IV 1/wk×2): hind limb paralysis after the 2nd injection followed by recovery
- Increase in TGD ([6]; 60 mg/kg IV 1/wk×2): 7%
- Maximum body weight loss ([6]; 60 mg/kg IV 1/wk×2): 23%
- Tumor growth delay (TGD) ([6]; 60 mg/kg IV 1/wk×2): 4 days
- Tumor growth inhibition (% TGI) ([6]; 60 mg/kg IV 1/wk×2): 14%
- Tumor growth inhibition (% TGI) ([6]; 60 mg/kg IV 1/wk×2, listed as free docetaxel): 14%
- Day of 0% survival ([7]; 30 mg/kg 1/wk×3): 45 days
- Day of 50% survival ([7]; 30 mg/kg 1/wk×3): 40 days
- Day mean tumor volume endpoint (≧3000 mm^3) reached ([7]; 30 mg/kg IV 1/wk×3): 43 days
- Increase in TGD ([7]; 30 mg/kg IV 1/wk×3): 115%
- Maximum body weight loss ([7]; 30 mg/kg IV 1/wk×3): 12%
- Tumor growth delay (TGD) ([7]; 30 mg/kg IV 1/wk×3): 23 days
- Tumor growth inhibition (% TGI) ([7]; 30 mg/kg IV 1/wk×3): 92%
- Maximum body weight loss [7, 11]: did not cause any significant body weight loss
- Tumor growth inhibition (% TGI) [7, 11]: 92%
- Day mean tumor volume endpoint (≧3000 mm^3) reached ([8]; 15 mg/kg IV 1/wk×3): 29 days
- Day of 0% survival ([8]; 15 mg/kg IV 1/wk×3): 43 days
- Day of 50% survival ([8]; 15 mg/kg IV 1/wk×3): 29 days
- Increase in TGD ([8]; 15 mg/kg IV 1/wk×3): 45%
- Maximum body weight loss ([8]; 15 mg/kg IV 1/wk×3): 2%
- Tumor growth delay (TGD) ([8]; 15 mg/kg IV 1/wk×3): 9 days
- Tumor growth inhibition (% TGI) ([8]; 15 mg/kg IV 1/wk×3): 75%
- Tumor growth inhibition (% TGI) ([8]; 15 mg/kg IV 1/wk×3, listed as free docetaxel): 75%
- Maximum body weight loss ([8]; 30 mg/kg IV 1/wk×3): 12% and 14%
- Tumor growth delay (TGD) ([8]; 30 mg/kg IV 1/wk×3): 23 days and 18 days
- Tumor growth inhibition (% TGI) ([8]; 30 mg/kg IV 1/wk×3): 92% and 81%
- Day mean tumor volume endpoint (≧3000 mm^3) reached [8, 11]: 43 days and 38 days
- Day of 0% survival [8, 11]: 45 days and 43 days
- Day of 50% survival [8, 11]: 40 days and 36 days
- Increase in TGD [8, 11]: 115% and 90%
- Tumor growth delay (TGD) [8, 11]: 23 days and 18 days
- Tumor growth inhibition (% TGI) [8, 11]: 92% and 81%
- Day mean tumor volume endpoint (≧1000 mm^3) reached [9, 12]: 63 days
- Day of 0% survival [9, 12]: 80 days
- Day of 50% survival [9, 12]: 61 days
- Hind limb paralysis [9, 12]: did not cause any significant body weight loss or hind limb paralysis
- Increase in TGD [9, 12]: 43%
- Maximum body weight loss [9, 12]: 19%
- Tumor growth delay (TGD) [9, 12]: 19 days
- Tumor shrinkage [9, 12]: no tumor shrinkage
- Tumor growth inhibition (% TGI) ([9]; large tumor group): 49%
- Tumor growth inhibition (% TGI) ([9]; large tumor group, listed as free docetaxel): 49%
- Hind limb paralysis [9, 13]: severe hind limb paralysis
- Maximum body weight loss [9, 13]: significant body weight loss
- Day mean tumor volume endpoint (≧1000 mm^3) reached [9, 14]: 61 days
- Day of 0% survival [9, 14]: 68 days
- Day of 50% survival [9, 14]: 56 days
- Hind limb paralysis [9, 14]: did not cause any significant body weight loss or hind limb paralysis
- Increase in TGD [9, 14]: 39%
- Maximum body weight loss [9, 14]: 18%
- Tumor growth delay (TGD) [9, 14]: 17 days
- Tumor growth inhibition (% TGI) ([9]; small tumor group): 64%
- Tumor growth inhibition (% TGI) ([9]; small tumor group, listed as free docetaxel): 64%
- Hind limb paralysis [9, 15]: severe hind limb paralysis
- Maximum body weight loss [9, 15]: significant body weight loss
